System: 996289-038-R-J1-PDC complex spheroid viability
Experiment: Anticancer human tumor 996289-038-R-J1-PDC patient-derived colon adenocarcinoma cell line growth inhibition [CLK]
Settings: for IC50: curve of first compound; for viability, T/C: stronger effect = lower value
How it was run: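 Multi-cell-type spheroids combined patient-derived tumor cells with HUVEC endothelial cells and human mesenchymal stem cells. Paired agents were dosed in half-log steps down from about clinical Cmax, or from 10 microM where Cmax was unknown.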

[1] = second compound 0.0316 µM, first compound 0.0316 µM
[2] = second compound 0.0316 µM, first compound 0.1 µM
[3] = second compound 0.0316 µM, first compound 0.316 µM
[4] = second compound 0.0316 µM, first compound 1 µM
[5] = second compound 0.0316 µM, first compound 3.16 µM
[6] = second compound 0.0316 µM, first compound 10 µM
[7] = second compound 0.1 µM, first compound 0.0316 µM
[8] = second compound 0.1 µM, first compound 0.1 µM
[9] = second compound 0.1 µM, first compound 0.316 µM
[10] = second compound 0.1 µM, first compound 1 µM
[11] = second compound 0.1 µM, first compound 3.16 µM
[12] = second compound 0.1 µM, first compound 10 µM
[13] = second compound 0.316 µM, first compound 0.0316 µM
[14] = second compound 0.316 µM, first compound 0.1 µM
[15] = second compound 0.316 µM, first compound 0.316 µM
[16] = second compound 0.316 µM, first compound 1 µM
[17] = second compound 0.316 µM, first compound 3.16 µM
[18] = second compound 0.316 µM, first compound 10 µM
[19] = second compound 1 µM, first compound 0.0316 µM
[20] = second compound 1 µM, first compound 0.1 µM
[21] = second compound 1 µM, first compound 0.316 µM
[22] = second compound 1 µM, first compound 1 µM
[23] = second compound 1 µM, first compound 3.16 µM
[24] = second compound 1 µM, first compound 10 µM
[25] = second compound 3.16 µM, first compound 0.0316 µM
[26] = second compound 3.16 µM, first compound 0.1 µM
[27] = second compound 3.16 µM, first compound 0.316 µM
[28] = second compound 3.16 µM, first compound 1 µM
[29] = second compound 3.16 µM, first compound 3.16 µM
[30] = second compound 3.16 µM, first compound 10 µM
[31] = second compound 10 µM, first compound 0.0316 µM
[32] = second compound 10 µM, first compound 0.1 µM
[33] = second compound 10 µM, first compound 0.316 µM
[34] = second compound 10 µM, first compound 1 µM
[35] = second compound 10 µM, first compound 3.16 µM
[36] = second compound 10 µM, first compound 10 µM
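Note: spheroids exposed to the agents for 7 days before readout.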

O=c1[nH]cc(F)c(=O)[nH]1 + CN1CCN(c2cc(C(=O)Nc3cc4cc(-c5cnn(C)c5)ccc4cn3)ccn2)CC1 was tested, and the IC50 (second compound 0.0316 µM) was greater than 10 µM, the IC50 (second compound 0.1 µM) was greater than 10 µM and the IC50 (second compound 0.316 µM) was 4.88 µM. It also gave an IC50 (second compound 1 µM) of less than 0.0316 µM, an IC50 (second compound 3.16 µM) of less than 0.0316 µM and an IC50 (second compound 10 µM) of less than 0.0316 µM. For the same compound, the viability, T/C [1] was 100%, the viability, T/C [2] was 91.3% and the viability, T/C [3] was 76.4%. The viability, T/C [4] was 74.4%, the viability, T/C [5] was 74.2% and the viability, T/C [6] was 71%. The viability, T/C [7] was 101%, the viability, T/C [8] was 94.4% and the viability, T/C [9] was 74.2%. The viability, T/C [10] was 65.5%, the viability, T/C [11] was 60.8% and the viability, T/C [12] was 58.4%. It also gave a viability, T/C [13] of 77.1%, a viability, T/C [14] of 68.1% and a viability, T/C [15] of 56.8%. For the same compound, the viability, T/C [16] was 56.7%, the viability, T/C [17] was 51.7% and the viability, T/C [18] was 47.3%. The viability, T/C [19] was 4.52%, the viability, T/C [20] was 5.71% and the viability, T/C [21] was 5.87%. The viability, T/C [22] was 6.18%, the viability, T/C [23] was 6.47% and the viability, T/C [24] was 7.26%. It also gave a viability, T/C [25] of 1.22%, a viability, T/C [26] of 0.94% and a viability, T/C [27] of 0.86%. It also gave a viability, T/C [28] of 1.6%, a viability, T/C [29] of 0.83% and a viability, T/C [30] of 0.72%. It also gave a viability, T/C [31] of 0.56%, a viability, T/C [32] of 0.79% and a viability, T/C [33] of 0.98%. The viability, T/C [34] was 1.55%, the viability, T/C [35] was 0.45% and the viability, T/C [36] was 0.41%.
CCCS(=O)(=O)Nc1ccc(F)c(C(=O)c2c[nH]c3ncc(-c4ccc(Cl)cc4)cc23)c1F + CNC(=O)c1ccc(Nc2nc(OC3CCCC3)c3c(-c4ccc5nc(C)oc5c4)c[nH]c3n2)c(OC)c1 gave an IC50 (second compound 0.0316 µM) greater than 10 µM, an IC50 (second compound 0.1 µM) greater than 10 µM and an IC50 (second compound 0.316 µM) of 9.36 µM. It also gave an IC50 (second compound 1 µM) of 5.68 µM, an IC50 (second compound 3.16 µM) of 4.68 µM and an IC50 (second compound 10 µM) of 4.51 µM. It also gave a viability, T/C [1] of 125%, a viability, T/C [2] of 105% and a viability, T/C [3] of 120%. The viability, T/C [4] was 131%, the viability, T/C [5] was 124% and the viability, T/C [6] was 83.4%. It also gave a viability, T/C [7] of 116%, a viability, T/C [8] of 133% and a viability, T/C [9] of 124%. The viability, T/C [10] was 118%, the viability, T/C [11] was 119% and the viability, T/C [12] was 76.7%. It also gave a viability, T/C [13] of 81.2%, a viability, T/C [14] of 84.5% and a viability, T/C [15] of 82.8%. For the same compound, the viability, T/C [16] was 84.8%, the viability, T/C [17] was 82.7% and the viability, T/C [18] was 48%. The viability, T/C [19] was 73.2%, the viability, T/C [20] was 70% and the viability, T/C [21] was 64.9%. The viability, T/C [22] was 70.6%, the viability, T/C [23] was 64.8% and the viability, T/C [24] was 35.6%. The viability, T/C [25] was 63.8%, the viability, T/C [26] was 67.5% and the viability, T/C [27] was 64.1%. It also gave a viability, T/C [28] of 68.1%, a viability, T/C [29] of 58.4% and a viability, T/C [30] of 31.8%. The viability, T/C [31] was 62.9%, the viability, T/C [32] was 60.2% and the viability, T/C [33] was 59.8%. The viability, T/C [34] was 66.9%, the viability, T/C [35] was 60.3% and the viability, T/C [36] was 26.1%.
Work on Nc1ccccc1NC(=O)c1ccc(CNC(=O)OCc2cccnc2)cc1 + CN1CCN(c2cc(C(=O)Nc3cc4cc(-c5cnn(C)c5)ccc4cn3)ccn2)CC1 yielded an IC50 (second compound 0.0316 µM) of 6.35 µM, an IC50 (second compound 0.1 µM) of 5.03 µM and an IC50 (second compound 0.316 µM) of 2.33 µM. For the same compound, the IC50 (second compound 1 µM) was less than 0.0316 µM, the IC50 (second compound 3.16 µM) was less than 0.0316 µM and the IC50 (second compound 10 µM) was less than 0.0316 µM. The viability, T/C [1] was 99.7%, the viability, T/C [2] was 103% and the viability, T/C [3] was 91.4%. It also gave a viability, T/C [4] of 81.7%, a viability, T/C [5] of 61.8% and a viability, T/C [6] of 42.3%. For the same compound, the viability, T/C [7] was 110%, the viability, T/C [8] was 88.1% and the viability, T/C [9] was 83.7%. The viability, T/C [10] was 71.1%, the viability, T/C [11] was 60% and the viability, T/C [12] was 38.3%. The viability, T/C [13] was 70.1%, the viability, T/C [14] was 64.8% and the viability, T/C [15] was 64.3%. It also gave a viability, T/C [16] of 60.4%, a viability, T/C [17] of 46.4% and a viability, T/C [18] of 20.9%. For the same compound, the viability, T/C [19] was 8.94%, the viability, T/C [20] was 5.54% and the viability, T/C [21] was 6.13%. It also gave a viability, T/C [22] of 3.31%, a viability, T/C [23] of 1.46% and a viability, T/C [24] of 1.42%. The viability, T/C [25] was 0.74%, the viability, T/C [26] was 0.78% and the viability, T/C [27] was 0.83%. For the same compound, the viability, T/C [28] was 2.18%, the viability, T/C [29] was 1.99% and the viability, T/C [30] was 1.71%. It also gave a viability, T/C [31] of 0.41%, a viability, T/C [32] of 1.24% and a viability, T/C [33] of 1.06%. It also gave a viability, T/C [34] of 0.6%, a viability, T/C [35] of 0.7% and a viability, T/C [36] of 1.88%.
